Reference: patent US6372747B1, “Farnesyl protein transferase inhibitors” (Schering Corporation, priority 1998, dated 2002)

Tests used:
Human tumor cells = assay: Soft Agar Assay (anchorage-independent growth); format: cell-based; details: range stated for the group unless single
Protocol: Anchorage-independent growth is a characteristic of tumorigenic cell lines. Human tumor cells can be suspended in growth medium containing 0.3% agarose and an indicated concentration of a farnesyl transferase inhibitor. The solution can be overlayed onto growth medium solidified with 0.6% agarose containing the same concentration of farnesyl transferase inhibitor as the top layer. After the top layer is solidified, plates can be incubated for 10-16 days at 37° C. under 5% CO2 to allow colony outgrowth. After incubation, the colonies can be stained by overlaying the agar with a solution of MTT (3-[4,5-dimethyl-thiazol-2-yl]-2,5-diphenyltetrazolium bromide, Thiazolyl blue) (1 mg/mL in PBS). Colonies can be counted and the IC50's can be determined.

COS Cell = COS Cell IC50 (Cell-Based Assay); details: range stated for the group
Protocol: FPT IC50 (inhibition of farnesyl protein transferase, in vitro enzyme assay) and COS Cell IC50 (Cell-Based Assay) were determined following the assay procedures described in WO 95/10516, published Apr. 20, 1995. GGPT IC50 (inhibition of geranylgeranyl protein transferase, in vitro enzyme assay), Cell Mat Assay, and anti-tumor activity (in vivo anti-tumor studies) could be determined by the assay procedures described in WO 95/10516. The disclosure of WO 95/10516 is incorporated herein by reference thereto.

Row | Compound | IC50 (Human tumor cells; Homo sapiens) | further results
1 | O=C(C1CC([C@H]2c3ccc(Cl)cc3CCc3cc(Br)cnc32)CCN1C(=O)NC1CCCCC1)N(CCCn1ccnc1)Cc1ccccc1 (single isomer, unassigned) [Example 79 Step B (Isomer A)] | 2 to 300 nM | 
2 | CC(C)(CCNC(=O)[C@H]1CN(C2c3ccc(Cl)cc3CCc3cc(Br)cnc32)CCN1C(=O)NC1CCCCC1)n1ccnc1 (some centres unmarked) [Example 1] |  | IC50 (COS Cell): 10 to 920 nM; melting point: 142 to 144 °C
3 | CC(C)(CCNC(=O)[C@H]1CN([C@H]2c3ccc(Cl)cc3CCc3cc(Br)cnc32)CCN1C(=O)CC1CCN(C(N)=O)CC1)n1ccnc1 [Example 8] |  | IC50 (COS Cell): 10 to 920 nM; melting point: 123 to 127 °C
4 | CC(C)(C)NC(=O)N1CCN([C@@H]2c3ccc(Cl)cc3CCc3cc(Br)cnc32)C[C@@H]1C(=O)NCCC(C)(C)n1ccnc1 [Example 11] | 2 to 300 nM | melting point: 157 to 159 °C
5 | CC(C)OC(=O)N1CCN([C@H]2c3ccc(Cl)cc3CCc3cc(Br)cnc32)C[C@@H]1C(=O)NCCC(C)(C)n1ccnc1 [Example 16] | 2 to 300 nM | melting point: 109 to 111 °C
6 | NC(=O)[C@H](Cc1cnc[nH]1)NC(=O)[C@H]1CN(C2c3ccc(Cl)cc3CCc3cc(Br)cnc32)CCN1C(=O)NC1CCCCC1 (some centres unmarked) [Example 25] |  | IC50 (COS Cell): 10 to 920 nM; melting point: 164 to 169 °C
7 | CC(C)(C)OC(=O)N1CCC(C2c3ccc(Cl)cc3CCc3cc(Br)cnc32)CC1C(=O)N(CCCn1ccnc1)Cc1ccccc1 (centres unmarked) [Example 88] | 2 to 300 nM | 
8 | Cn1cncc1CCCNC(=O)[C@H]1CN(C2c3ccc(Cl)cc3CCc3cc(Br)cnc32)CCN1C(=O)NC1CCCCC1 (some centres unmarked) [Example 101] |  | IC50 (COS Cell): ≤ 35 nM
9 | CC(C)(C)NC(=O)N1CCN(C2c3ccc(Cl)cc3CCc3cc(Br)cnc32)C[C@@H]1C(=O)NCCCn1ccnc1N (some centres unmarked) [Example 103] |  | IC50 (COS Cell): ≤ 35 nM
10 | O=C([C@H]1CN([C@@H]2c3ccc(Cl)cc3CCc3cccnc32)CCN1C(=O)OC1CCCCC1)N(CCCn1ccnc1)Cc1ccccc1 [Example 188] | 2 to 10 nM | 
11 | Cc1cn(CCCN(Cc2ccccc2)C(=O)[C@H]2CN([C@@H]3c4ccc(Cl)cc4CCc4cc(Br)cnc43)CCN2C(=O)OC(C)C)cn1 [Example 196] | 2 to 10 nM | 
12 | Cc1cn(CCCN(Cc2ccccc2)C(=O)[C@H]2CN([C@@H]3c4ccc(Cl)cc4CCc4cc(Br)cnc43)CCN2C(=O)OC2CCCCC2)cn1 [Example 197] | 2 to 10 nM | 
13 | Cc1cn(CCCN(Cc2ccccc2)C(=O)[C@H]2CN([C@@H]3c4ccc(Cl)cc4CCc4cccnc43)CCN2C(=O)OC2CCCCC2)cn1 [Example 198] | 2 to 10 nM | 
14 | Cc1cn(CCCN(Cc2ccccc2)C(=O)[C@H]2CN([C@H]3c4ccc(Cl)cc4CCc4cccnc43)CCN2C(=O)OC(C)C)cn1 [Example 200] | 2 to 10 nM | 
15 | Cc1cn(CCCN(Cc2ccccc2)C(=O)[C@H]2CN([C@@H]3c4ccc(Cl)cc4CCc4cccnc43)CCN2C(=O)OC2CCCC2)cn1 [Example 202] | 2 to 10 nM | 
16 | CC(C)OC(=O)N1CCN([C@H]2c3ccc(Cl)cc3CCc3cccnc32)C[C@@H]1C(=O)N(CCCn1ccnc1)Cc1ccc(F)cc1 [Example 204] | 2 to 10 nM | 
17 | CC(C)(C)OC(=O)N1CCN([C@H]2c3ccc(Cl)cc3CCc3cc(Br)cnc32)C[C@@H]1C(=O)N(CCCn1ccnc1)Cc1cccnc1 [Example 206] | 2 to 10 nM | 
18 | CC(C)(C)OC(=O)N1CCN([C@@H]2c3ccc(Cl)cc3CCc3cc(Br)cnc32)C[C@@H]1C(=O)N(CCCn1ccnc1)Cc1cccnc1 [Example 207] | 2 to 10 nM | 
19 | O=C([C@H]1CN([C@H]2c3ccc(Cl)cc3CCc3cccnc32)CCN1C(=O)OC1CCCCC1)N(CCCn1ccnc1CO)Cc1ccccc1 [Example 208] | 2 to 10 nM | 
20 | CC(C)(C)OC(=O)N1CCN(C2c3ccc(Cl)cc3CCc3cc(Br)cnc32)C[C@@H]1C(=O)N(CCCn1ccnc1)Cc1ccccn1 (some centres unmarked) [Example 217] | 2 to 10 nM | 
21 | Cc1cn(CCCN(Cc2ccccc2)C(=O)[C@H]2CN([C@H]3c4ccc(Cl)cc4CCc4cccnc43)CCN2C(=O)OC2CCCCC2)cn1 [Example 225] | 2 to 10 nM | IC50 (Human tumor cells): 2 nM
22 | Cc1cn(CCNC(=O)[C@H]2CN(C3c4ccc(Cl)cc4CCc4cc(Br)cnc43)CCN2C(=O)NC2CCCCC2)cn1 (some centres unmarked) [Example 259] |  | IC50 (COS Cell): ≤ 35 nM
23 | Cc1cn(CCCN(Cc2cccc(Cl)c2)C(=O)[C@H]2CN([C@H]3c4ccc(Cl)cc4CCc4cccnc43)CCN2C(=O)OC2CCCCC2)cn1 [Example 322] | 2 to 10 nM | 
24 | Cn1cncc1CCCN(Cc1ccccc1)C(=O)[C@H]1CN([C@H]2c3ccc(Cl)cc3CCc3cccnc32)CCN1C(=O)OC1CCCCC1 [Example 335] | 2 to 10 nM | 
25 | Cc1cn(CC(O)(CNC(=O)[C@H]2CN(C3c4ccc(Cl)cc4CCc4cccnc43)CCN2C(=O)OC2CCCCC2)c2ccccc2)cn1 (some centres unmarked) [Example 339] | 2 to 10 nM | 
26 | Cc1ncc(CCN(CC2CC2)C(=O)[C@H]2CN([C@H]3c4ccc(Cl)cc4CCc4cccnc43)CCN2C(=O)OC(C)(C)C)n1C [Example 365] | 2 to 10 nM | 

Now from value to molecule, other results behind:

Row | IC50 (Human tumor cells; Homo sapiens) | Compound | further results
27 | 2 to 10 nM | Cc1cn(CCCN(Cc2ccccc2O)C(=O)[C@H]2CN([C@H]3c4ccc(Cl)cc4CCc4cccnc43)CCN2C(=O)OC2CCCCC2)cn1 (single isomer, unassigned) [Example 316] | 
28 | 2 to 10 nM | Cc1cn(CCCN(Cc2ccccc2)C(=O)[C@@H]2CN([C@H]3c4ccc(Cl)cc4CCc4cccnc43)CCN2C(=O)OC2CCCCC2)cn1 (single isomer, unassigned) [Example 321] | 
29 | 2 to 10 nM | Cc1cn(CCCN(Cc2ccccc2Cl)C(=O)[C@H]2CN([C@H]3c4ccc(Cl)cc4CCc4cccnc43)CCN2C(=O)OC2CCCCC2)cn1 (single isomer, unassigned) [Example 324] | 
30 | 2 to 10 nM | Cc1cncn1CCCN(Cc1ccccc1)C(=O)[C@H]1CN([C@H]2c3ccc(Cl)cc3CCc3cccnc32)CCN1C(=O)OC1CCCCC1 (single isomer, unassigned) [Example 325] | 
31 | 2 to 10 nM | Cc1cn(CCCN(Cc2ccccc2)C(=O)[C@H]2CN(C3c4ccccc4CCc4cccnc43)CCN2C(=O)OC2CCCCC2)cn1 (single isomer, unassigned) [Example 372] | 
32 | 2 to 10 nM | Cc1cn(CCCN(Cc2ccccc2)C(=O)[C@H]2CN(C3c4ccc(Cl)cc4CCc4cc(Br)cnc43)CCN2C(=O)OC2CCCCC2)c(C)n1 (single isomer, unassigned) [Example 375] | 
33 | 2 to 10 nM | Cc1nccn1CCCN(Cc1ccccc1)C(=O)[C@H]1CN(C2c3ccc(Cl)cc3CCc3cc(Br)cnc32)CCN1C(=O)OC1CCCCC1 (single isomer, unassigned) [Example 382] | 
34 | 2 to 10 nM | Cn1cncc1CCN(CC1CC1)C(=O)[C@H]1CN([C@H]2c3ccc(Cl)cc3CCc3cc(Br)cnc32)CCN1C(=O)OC(C)(C)C [305 (11s,2R isomer)] | 
35 | 2 to 10 nM | CC(C)(C)OC(=O)N1CCN(C2c3ccc(Cl)cc3CCc3cc(Br)cnc32)C[C@@H]1C(=O)N(CCCn1ccnc1)Cc1ccncc1 (some centres unmarked) [Example 116] | 
36 | 2 to 10 nM | CC(C)(C)OC(=O)N1CCN(C2c3ccc(Cl)cc3CCc3cc(Br)cnc32)C[C@@H]1C(=O)N(CCCn1ccnc1)Cc1cccnc1 (some centres unmarked) [Example 117] | 
37 | 2 to 10 nM | CC(C)(C)OC(=O)N1CCN([C@@H]2c3ccc(Cl)cc3CCc3cc(Br)cnc32)C[C@@H]1C(=O)N(CCCn1ccnc1)Cc1ccccc1 [Example 160] | 
38 | 2 to 10 nM | O=C([C@H]1CN([C@H]2c3ccc(Cl)cc3CCc3cc(Br)cnc32)CCN1C(=O)OC1CCCCC1)N(CCCn1ccnc1)Cc1ccccc1 [Example 170] | 
39 | 2 to 10 nM | CC(C)COC(=O)N1CCN([C@@H]2c3ccc(Cl)cc3CCc3cc(Br)cnc32)C[C@@H]1C(=O)N(CCCn1ccnc1)Cc1ccccc1 [Example 184] | 
40 | 2 to 10 nM | O=C([C@H]1CN([C@H]2c3ccc(Cl)cc3CCc3cccnc32)CCN1C(=O)OC1CCCCC1)N(CCCn1ccnc1)Cc1ccccc1 [Example 186] | 
41 | 2 to 10 nM | CC(C)OC(=O)N1CCN([C@@H]2c3ccc(Cl)cc3CCc3cccnc32)C[C@@H]1C(=O)N(CCCn1ccnc1)Cc1ccccc1 [Example 187] | 
